Data published in patent publication US12473250B2, “Molecular design of new antibiotics and antibiotic adjuvants against MCR strains” (priority 2019, dated 2025).
In brackets after ≈: the same amount, converted by molar mass.

Columns and labels:
Type in all cases: cell-based
[1] = system: colistin resistant MCR (−) E. Coli strains; assay: Synergy study: colistin MIC in the presence of compound
Description: (§1) The MICs of the individual drugs and LC compound in combinations were determined using the broth microdilution technique as recommended by the CLSI whereby the two anti-microbial agents were added in an equal amount. (e.g.: 50 μL of Colistin: 50 μL of LC compounds). Diluted media containing compounds and antibiotics will be serially diluted 2-fold, and LC compounds and antibiotics alone or in combination will be assayed at fixed synergy concentration. In all cases, the lowest concentration at which no visible growth occurred was be recorded to be the MIC value of individual and combined antibacterial agents. The results were obtained after 24 hours of incubation.

[2] = system: colistin resistant MCR (−) E. Cloacae strain 7023456439; assay: as above; conditions: strain 7023456439 E. Cloacae
Description: as §1

[3] = system: colistin resistant MCR (−) E. Coli strains; assay: MIC, broth microdilution, compound alone
Description: (§2) MIC experiments of the antimicrobial agents were determined by a modified broth microdilution method in accordance with the Clinical and Laboratory Standards Institute (CLSI) guidelines using 96 well culture plates. In brief, serial dilutions of all plates were prepared at different concentrations (μg). The inoculum suspension was prepared by adding isolated colonies from a 18-20 hours on TSA plate into phosphate buffer (0.31 mM, pH 7.2) or in water for injection (BBraun) and adjusting the suspension to a turbidity equivalent to 0.5 McFarland Standard. Each well contained a final bacterial concentration of approximately 5×10^5 colony forming units (CFU)/mL. The plate was covered and incubated at 35° C. for 24 hours. […] For the microdilution plates, turbidity in wells can be measured at OD600 using TECAN infinite M200Pro. MIC was determined as […] concentration that gives a 99 percent inhibition.

[4] = system: colistin resistant MCR (+) E. Coli strains; assay: MIC, broth microdilution, compound alone; conditions: compound alone
Description: as §2

[5] = system: colistin resistant MCR (−) E. Cloacae strain 7023456439; assay: MIC, broth microdilution, compound alone; conditions: strain 7023456439 E. Cloacae
Description: as §2

[6] = system: colistin resistant MCR (+) E. Coli strains; assay: Synergy study: colistin MIC in the presence of compound
Description: as §1

[7] = strain 6083672926, MCR(−), compound at 5 μg (Table 2a: 5 ug/ml)
[8] = strain 7023446108, MCR(−), compound at 5 μg (Table 2a: 5 ug/ml)
[9] = strain 7033607097, MCR(−), compound at 5 μg (Table 2a: 5 ug/ml)
[10] = compound at 5 μg (Table 2a: 5 ug/ml)
[11] = strain 6083672926, MCR(−), compound at 10 μg (Table 2a: 10 ug/ml)
[12] = strain 7023446108, MCR(−), compound at 10 μg (Table 2a: 10 ug/ml)
[13] = strain 7033607097, MCR(−), compound at 10 μg (Table 2a: 10 ug/ml)
[14] = compound at 10 μg (Table 2a: 10 ug/ml)
[15] = strain 6075066346, MCR(+), compound at 5 μg (Table 2a: 5 ug/ml)
[16] = strain 6083655967, MCR(+), compound at 5 μg (Table 2a: 5 ug/ml)
[17] = strain 7103531927, MCR(+), compound at 5 μg

SMILES	Colistin MIC in the presence of the compound [1, 7] [µg/mL]	Colistin MIC in the presence of the compound [1, 8] [µg/mL]	Colistin MIC in the presence of the compound [1, 9] [µg/mL]	MIC ([3]; strain 6083672926, MCR (−)) [µg/mL]	MIC ([3]; strain 7023446108, MCR (−)) [µg/mL]	MIC ([3]; strain 7033607097, MCR (−)) [µg/mL]	MIC ([4]; strain 6075066346, MCR (+)) [µg/mL]	MIC ([4]; strain 6083655967, MCR (+)) [µg/mL]	MIC ([4]; strain 6103645107, MCR (+)) [µg/mL]	MIC ([4]; strain 6123520276, MCR (+)) [µg/mL]	MIC ([4]; strain 7013177695, MCR (+)) [µg/mL]	MIC ([4]; strain 7023436560, MCR (+)) [µg/mL]	MIC ([4]; strain 7023444207, MCR (+)) [µg/mL]	MIC [5] [µg/mL]	MIC ([4]; strain 7103531927, MCR (+)) [µg/mL]	Colistin MIC in the presence of the compound [1, 11] [µg/mL]	Colistin MIC in the presence of the compound [1, 12] [µg/mL]	Colistin MIC in the presence of the compound [1, 13] [µg/mL]	Colistin MIC in the presence of the compound [2, 14] [µg/mL]	Colistin MIC in the presence of the compound [6, 15] [µg/mL]	further results
CC(C)=CCc1c(OCCCCN(CCCN(C)C)CCCN(C)C)ccc(C(=O)/C=C/c2ccc(OCCCCN(CCCN(C)C)CCCN(C)C)cc2)c1O [LC097]	0.195	0.195	0.195	25 (≈ 31 µM)	12.5 (≈ 15.5 µM)	12.5 (≈ 15.5 µM)	25 (≈ 31 µM)	25 (≈ 31 µM)	12.5 (≈ 15.5 µM)	25 (≈ 31 µM)	12.5 (≈ 15.5 µM)	12.5 (≈ 15.5 µM)	25 (≈ 31 µM)	>25							Colistin MIC in the presence of the compound [2, 10]: >12.5 µg/mL
CCOC(=O)C(CCCNC(=N)N)NC(=O)COc1ccc(/C=C/C(=O)c2ccc(OCC(=O)NC(CCCNC(=N)N)C(=O)OCC)c(CC=C(C)C)c2O)cc1 (stereo not drawn) [LC137]	≤0.0975	≤0.0975	≤0.0975	12.5 (≈ 15.5 µM)	12.5 (≈ 15.5 µM)	12.5 (≈ 15.5 µM)	12.5 (≈ 15.5 µM)	12.5 (≈ 15.5 µM)							12.5 (≈ 15.5 µM)						Colistin MIC in the presence of the compound ([1]; strain 6083672926, MCR(−), compound at 3 μg): 6.25 µg/mL; Colistin MIC in the presence of the compound ([1]; strain 6083672926, MCR(−), compound at 4 μg): 0.195 µg/mL; Colistin MIC in the presence of the compound ([1]; strain 7023446108, MCR(−), compound at 3 μg): 0.39 µg/mL; Colistin MIC in the presence of the compound ([1]; strain 7023446108, MCR(−), compound at 4 μg): <0.0975 µg/mL; Colistin MIC in the presence of the compound ([1]; strain 7033607097, MCR(−), compound at 3 μg): 0.195 µg/mL; Colistin MIC in the presence of the compound ([1]; strain 7033607097, MCR(−), compound at 4 μg): <0.0975 µg/mL; synergy with colistin ([6]; against mcr-1 bacteria, in words): excellent synergy; Colistin MIC in the presence of the compound ([6]; strain 6083655967, MCR(+), compound at 3 μg): 0.78 µg/mL; Colistin MIC in the presence of the compound ([6]; strain 7103531927, MCR(+), compound at 3 μg): 0.39 µg/mL
Cc1cc(OCCCCN(Cc2ccccn2)Cc2ccccn2)cc(OCCCCN(Cc2ccccn2)Cc2ccccn2)c1.[Cl][Zn][Cl].[Cl][Zn][Cl] [Orc-DPA-Zn]				50	50	50	50	50	>50	50	50	50	50	>50							Colistin MIC in the presence of the compound ([1]; strain 6083672926, MCR(−), compound at 50 ug/ml): <0.195 µg/mL; Colistin MIC in the presence of the compound ([1]; strain 7023446108, MCR(−), compound at 50 ug/ml): <0.195 µg/mL; Colistin MIC in the presence of the compound ([1]; strain 7033607097, MCR(−), compound at 50 ug/ml): <0.195 µg/mL; Colistin MIC in the presence of the compound ([2]; compound at 50 ug/ml): <0.195 µg/mL
CC(C)=CCc1c(OCC(=O)NC(CCCNC(=N)N)C(N)=O)ccc(C(=O)/C=C/c2ccc(OCC(=O)NC(CCCNC(=N)N)C(N)=O)cc2)c1O (stereo not drawn) [LC131]				>50	>50	>50	>50	>50	>50	>50	>50	>50	>50	>50		12.5	6.25	6.25	>12.5		
COC(=O)C(CCCNC(=N)N)NC(=O)COc1ccc(C2COc3c(ccc4c3C=CC(C)(C)O4)C2)c(OCC(=O)NC(CCCNC(=N)N)C(=O)OC)c1 (stereo not drawn) [LC106]				>25	>25	>25	>25	>25	>25	>25	>25	>25	>25	>25		12.5	6.25	6.25	>25		
CC(C)=CCc1c(OCCC[N+](C)(C)C)ccc(C(=O)/C=C/c2ccc(OCCC[N+](C)(C)C)cc2)c1O [LC312]				12.5	6.25	12.5	12.5	12.5	12.5	12.5	12.5	6.25	12.5	>50		<0.0975	<0.0975	<0.0975	>12.5		
CC(C)=CCc1c(OCCCCN(C)CCCN(C)C)ccc(C(=O)/C=C/c2ccc(OCCCCN(C)CCCN(C)C)cc2)c1O [LC098]	0.195	0.195	0.195	12.5 (≈ 18.8 µM)	6.25 (≈ 9.4 µM)	6.25 (≈ 9.4 µM)	6.25 (≈ 9.4 µM)	6.25 (≈ 9.4 µM)	6.25 (≈ 9.4 µM)	6.25 (≈ 9.4 µM)	6.25 (≈ 9.4 µM)	6.25 (≈ 9.4 µM)	6.25 (≈ 9.4 µM)	>25							Colistin MIC in the presence of the compound [2, 10]: 25 µg/mL
CCN(CC)CCCOc1ccc(/C=C/C(=O)c2ccc(OCCCN(CC)CC)c(CC=C(C)C)c2O)cc1 [LC204]	0.39	0.39	0.39	>50	>50	>50	>50	>50							>50					0.39	Colistin MIC in the presence of the compound [6, 16]: 0.39 µg/mL; Colistin MIC in the presence of the compound [6, 17]: 0.39 µg/mL
CC(C)=CCc1c(OCCCN2CCNCCNCCNCC2)ccc(C(=O)/C=C/c2ccc(OCCCN3CCNCCNCCNCC3)cc2)c1O [LC206]	0.39	0.39	0.39	>50	>50	>50	>50	>50							>50					0.39	Colistin MIC in the presence of the compound [6, 16]: 0.39 µg/mL; Colistin MIC in the presence of the compound [6, 17]: 0.39 µg/mL
CCN(CC)CCOc1ccc(/C=C/C(=O)c2ccc(OCCN(CC)CC)c(CC=C(C)C)c2O)cc1 [LC150]	0.195	0.39	0.195	50 (≈ 95.7 µM)	50 (≈ 95.7 µM)	50 (≈ 95.7 µM)	>50	>50							>50					0.39	Colistin MIC in the presence of the compound [6, 16]: 0.195 µg/mL; Colistin MIC in the presence of the compound [6, 17]: 0.39 µg/mL
